Patent US20140348880A1, “Ortho-Aminothiophenol Compounds and Uses Thereof” (Cape Breton University, priority 2013, published 2014)

Columns and labels:
[1] = test system: Escherichia coli (#25922); assay: In vitro disc diffusion assay, ZOI (Example 3); type: cell-based; conditions: E. coli; control; 10 μg/disc
Method: (§1) Sterile assay discs (6 mm diameter) were obtained from VWR Whatman and antibiotic assay discs (6 mm diameter) containing getamicin (10 μg/disc) and the combination drug sulfamethoxazole 23.75 μg/disc and trimethoprim 1.25 μg/disc were obtained from Becton, Dickinson and Company (USA). Dimethyl sulfoxide (DMSO) for microbial experiments was BioReagent™ grade and was purchased from Sigma-Aldrich. The nutrient broth and Müller-Hinton agar was purchased from Becton, Dickinson and Company (USA). Bacillus cereus, Pseudomonas aeruginosa (#27853), Klebsiella pneumonia (#13883), Proteus vulgaris (#13315), Staphylococcus aureus (#25923) and Escherichia coli (#25922) strains were obtained from the American Type Culture Collection (ATCC). All materials in contact with antimicrobial matter was treated for 40 min at 121° C. and 20 psi in a biohazard autoclave bag prior to waste disposing or washing. McFarland turbity standards containing barium sulfate were obtained from bioMérieux.
(§2) The growth medium was prepared by addition of Müller-Hinton agar (38 g) to 1 L distilled water under vigorous stirring and boiled for 10 min until complete dissolution. After cooling to 25° C., the pH value of the medium was 7.3±0.1. The medium was sterilized in an autoclave at 121° C. for 15 min at 20 psi, cooled to 45-50° C. and dispended into sterile Petri dishes on a leveled, horizontal surface to give uniform depth. Stock solutions of the microorganisms were incubated at 37° C. for 24 h and the turbidity of the microbial colonies were adjusted visually with sterile saline (0.85% w/v NaCl) to 0.5 McFarland standards. Within 15 min after adjusting the turbidity of the suspensions, the Petri dishes were inoculated using sterile cotton buds. The prepared antibiotic assay discs were placed on the surface of the seeded Müller-Hinton agar using flame sterilized forceps.
(§3) Stock solutions of compounds and the Cu complexed compounds were made in DMSO and were micropipetted onto the discs for 25 to 200 μg compound/disc. The discs were dried at ambient temperature for 30-50 min before placement onto the seeded Petri dishes which were then incubated at 37° C. for 24 h. Averaged inhibition zone measurements (mm) have an accuracy of ±0.5 mm; adjacent overlapping ZOI were determined using radii measurements.

[2] = test system: Pseudomonas aeruginosa (#27853); assay: In vitro disc diffusion assay, ZOI (Example 3); type: cell-based; conditions: P. aeruginosa; control; 10 μg/disc
Method: as §1, §2, §3

[3] = test system: Proteus vulgaris (#13315); assay: In vitro disc diffusion assay, ZOI (Example 3); type: cell-based; conditions: P. vulgaris; control; 10 μg/disc
Method: as §1, §2, §3

[4] = test system: Staphylococcus aureus (#25923); assay: In vitro disc diffusion assay, ZOI (Example 3); type: cell-based; conditions: S. aureus; control; 10 μg/disc
Method: as §1, §2, §3

Bacillus cereus = assay: In vitro disc diffusion assay, ZOI (Example 3); type: cell-based; conditions: B. cereus; control; 10 μg/disc
Method: as §1, §2, §3

[5] = test system: Klebsiella pneumonia (#13883); assay: In vitro disc diffusion assay, ZOI (Example 3); type: cell-based; conditions: K. pnemonia; control; 10 μg/disc
Method: as §1, §2, §3

B. cereus = assay: Disc diffusion zone of inhibition (Example 2); type: cell-based, Bacillus cereus; conditions: 10 μg/disc
Method: as §2, with “turbidity of these microbial colony” for “turbidity of the microbial colonies”, “these microbial colony were adjusted” for “the microbial colonies were adjusted”, “0.5 McFarland standards (bioMerieux, SA (France) they are made from barium sulfate (BaSO4). Within 15” for “0.5 McFarland standards. Within 15”
(§4) Stock solutions of compounds of Formula I, Ia, Ib and Formula II, IIa, pharmaceutically acceptable salts thereof, and metal complexes thereof were made in DMSO and were micropipetted onto the discs for 25 to 200 μg/disc. The discs were dried at ambient temperature for 30-50 min before placement onto the seeded Petri dishes which were then incubated at 37° C. for 24 h. Averaged inhibition zone diameters measurements (mm) have an accuracy of ±0.5 mm; adjacent overlapping ZOI were determined using radii measurements. Antibiotic disc like (sulfamethoxazole 23.75 μg trimethoprim 1.25 μg)/disc, Gentamicin 10 μg/disc and DMSO were used as positive and negative standards (control).
(§5) Antimicrobial test was carried out to evaluate the efficacy of compounds of Formula I, Ia, Ib and Formula II, IIa, pharmaceutically acceptable salts thereof, and metal complexes thereof, as well as control tests with control compounds, against six major pathogenic bacteria namely Bacillus cereus, Pseudomonas aeruginosa, Klebsiella pneumonia, Proteus vulgaris, Staphylococcus aureus and Escherichia coli.

P. vulgaris = assay: Disc diffusion zone of inhibition (Example 2); type: cell-based, Proteus vulgaris; conditions: 10 μg/disc
Method: as §2, with “turbidity of these microbial colony” for “turbidity of the microbial colonies”, “these microbial colony were adjusted” for “the microbial colonies were adjusted”, “0.5 McFarland standards (bioMerieux, SA (France) they are made from barium sulfate (BaSO4). Within 15” for “0.5 McFarland standards. Within 15”
as §4, §5

P. aeruginosa = assay: Disc diffusion zone of inhibition (Example 2); type: cell-based, Pseudomonas aeruginosa; conditions: 10 μg/disc
Method: as §2, with “turbidity of these microbial colony” for “turbidity of the microbial colonies”, “these microbial colony were adjusted” for “the microbial colonies were adjusted”, “0.5 McFarland standards (bioMerieux, SA (France) they are made from barium sulfate (BaSO4). Within 15” for “0.5 McFarland standards. Within 15”
as §4, §5

K. pnemonia = assay: Disc diffusion zone of inhibition (Example 2); type: cell-based, Klebsiella pneumonia; conditions: 10 μg/disc
Method: as §2, with “turbidity of these microbial colony” for “turbidity of the microbial colonies”, “these microbial colony were adjusted” for “the microbial colonies were adjusted”, “0.5 McFarland standards (bioMerieux, SA (France) they are made from barium sulfate (BaSO4). Within 15” for “0.5 McFarland standards. Within 15”
as §4, §5

E. coli = assay: Disc diffusion zone of inhibition (Example 2); type: cell-based, Escherichia coli; conditions: 10 μg/disc
Method: as §2, with “turbidity of these microbial colony” for “turbidity of the microbial colonies”, “these microbial colony were adjusted” for “the microbial colonies were adjusted”, “0.5 McFarland standards (bioMerieux, SA (France) they are made from barium sulfate (BaSO4). Within 15” for “0.5 McFarland standards. Within 15”
as §4, §5

S. aureus = assay: Disc diffusion zone of inhibition (Example 2); type: cell-based, Staphylococcus aureus; conditions: S. aureus; 10 μg/disc
Method: as §2, with “turbidity of these microbial colony” for “turbidity of the microbial colonies”, “these microbial colony were adjusted” for “the microbial colonies were adjusted”, “0.5 McFarland standards (bioMerieux, SA (France) they are made from barium sulfate (BaSO4). Within 15” for “0.5 McFarland standards. Within 15”
as §4, §5

Substance: Gentamicin
- ZOI [1]: 9 mm
- ZOI [2]: 7 mm
- ZOI [3]: 9 mm
- ZOI [4]: 9.5 mm
- ZOI (Bacillus cereus): 9.5 mm
- ZOI [5]: 9.5 mm
- Zone of Inhibition (B. cereus): 25 mm
- Zone of Inhibition (P. vulgaris): 24 mm
- Zone of Inhibition (P. aeruginosa): 20 mm
- Zone of Inhibition (K. pnemonia): 25 mm
- Zone of Inhibition (E. coli): 24 mm
- Zone of Inhibition (S. aureus): 25 mm
